In patent publication US20110027178A1, “IMAGING THE CENTRAL NERVOUS SYSTEM” (priority 2008, published 2011):

Biological target: T1, P2X7 receptor (Homo sapiens, UniProt Q99572)
T1 construct: expressed in transfected cells; host or cells: HEK.293 cells, transient transfection
T1 sequence (Q99572 1-595): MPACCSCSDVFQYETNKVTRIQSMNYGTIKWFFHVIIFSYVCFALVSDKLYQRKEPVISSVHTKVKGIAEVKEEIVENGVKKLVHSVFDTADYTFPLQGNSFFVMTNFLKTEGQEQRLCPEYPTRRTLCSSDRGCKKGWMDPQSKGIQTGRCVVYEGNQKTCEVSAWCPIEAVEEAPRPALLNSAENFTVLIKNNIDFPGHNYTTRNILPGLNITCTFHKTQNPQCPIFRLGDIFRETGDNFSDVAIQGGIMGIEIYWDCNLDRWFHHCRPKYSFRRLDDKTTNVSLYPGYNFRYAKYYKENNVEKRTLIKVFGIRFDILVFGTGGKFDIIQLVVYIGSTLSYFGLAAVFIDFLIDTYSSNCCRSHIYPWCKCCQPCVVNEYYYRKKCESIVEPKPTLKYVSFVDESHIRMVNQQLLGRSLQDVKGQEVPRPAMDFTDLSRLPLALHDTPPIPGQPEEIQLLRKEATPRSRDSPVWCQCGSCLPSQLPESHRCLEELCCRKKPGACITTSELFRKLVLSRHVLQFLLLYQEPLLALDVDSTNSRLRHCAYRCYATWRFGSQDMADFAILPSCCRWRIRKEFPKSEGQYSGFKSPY
Assay: Pore-forming assay (Yo Pro-1 dye uptake), P2X7 receptor functional assay
Assay type: cell-based
Conditions: P2X7 transfected HEK.293 cells, Bz-ATP 30 μM, Yo Pro-1 1 μM, triplicate
Excerpt: Non-radioactive versions of the Imaging Agents illustrated in Table I were screened in a P2X7 receptor functional assay. This assay is described in Example 9 and is based upon the ability of the P2X7 receptor to form a non-selective pore in P2X7 transfected HEK.293 cells upon activation with an agonist, thereby allowing dye to permeate the cells. The non selective P2X channel antagonist used as a reference inhibitor for the evaluation of the non-radioactive compound of the invention was pyridoxal-phosphate-6-azophenyl-2′,4′-disulfonate (PPADS), and the results of the assay are provided in Table I above.
The assay method used was based on the ability of the DNA binding dye, Yo Pro-1 (quinolinium, 4[3-methyl-2(3H)-benzoxazolylidene) methyl]-1-[3-(trimethyl-ammonio) propyl]-[…]) to enter through the dilated or “large pore form” of the P2X7 receptor and to bind to intracellular DNA/RNA whereupon it increases fluorescence intensity. Yo Pro-1 was therefore used to quantify inhibition of P2X7 function. This assay was based on the methods published by Michel et al., (B.J. Pharmacol 1998; 125: 1194-1201).
Initially, HEK.293 cells were transiently transfected using LipofectamineTMLTX (Invitrogen) for 72 hrs with P2X7 cDNA. 48 hours prior to use the cells were seeded into poly-D-lysine coated 96-well black-walled, clear bottomed plates, at a density of 30,000 cells/well. Stock solutions of each test compound were prepared at a concentration of 40 mM in 100% DMSO
Following the 48 hour incubation the culture medium was removed from the transfected cells, the cells were washed once and placed in pre-warmed sucrose assay buffer (Sucrose: 280 mM, KCl: 5 mM, CaCl2: 0.5 mM, glucose: 10 mM, HEPES: 10 mM, N-methyl-D-glucamine: 10 mM; pH7.4). The test compounds were added to the plate at a concentration of 10 μM and 100 nM in triplicate and incubated at 37° C. for 30 minutes. The final DMSO concentration in the assay was 1%. After this time Yo Pro-1 dye and Bz-ATP solution was added at concentrations of 1 μM and 30 μM respectively for 60 minutes at 37° C. The fluorescence was then read at 485 nm excitation and 530 nm emission.
The non-selective P2X channel antagonist PPADS was used as a reference inhibitor in the assay. A dose-response to PPADS was performed on the assay plate using a starting concentration of 200 μM followed by a 1 in 6 serial dilution covering 200 μM to 0.4 nM. For each compound data set, a percentage inhibition value was calculated based on the three assay points generated.

SMILES | % Inhibition (test compound 100 nM) | % Inhibition (test compound 10 μM)
O=C1CSC(=O)N1C(CCc1ccncc1)COc1ccc(-c2cc([N+](=O)[O-])ccc2F)cc1 (stereo not drawn) [Non-radioactive Imaging Agent 2, 3-[1-(2′-Fluoro-5′-nitro-biphenyl-4-yloxymethyl)-3-pyridin-4-yl-propyl]-thiazolidine-2,4-dione] | 22.0% | 72.0%
O=C(CC12CC3CC(CC(C3)C1)C2)Nc1cccc2nc(NCCNCCOCC[18F])ccc12 [Non-radioactive Imaging Agent 3] | 0.00% | 62.0%
[18F]c1ncccc1Cn1nnnc1-c1cccc(Cl)c1Cl [Non-radioactive Imaging Agent 5] | 10.0% | 69.6%
